In patent publication US20090137580A1, “Fused Heterocyclic Derivatives and Use Thereof” (Takeda Pharmaceutical Company Limited, priority 2005, published 2009):
Counter-ions that a name gives are not always drawn.

Legend:
[1] = target: T1, TIE2 Receptor Kinase (TIE2) (Homo sapiens, UniProt Q02763); test: Determination of TIE2 receptor kinase (TIE2) inhibitory activity (alpha screen); format: biochemical; conditions: TIE2 intracellular domain protein, 5 μM ATP buffer; read-out: IC50 value (TIE2 kinase inhibition)
T1 construct: TIE2 intracellular domain protein (UPSTATE); purchased UPSTATE
Procedure: The test compound dissolved in dimethyl sulfoxide (DMSO) was diluted with a buffer (50 mM Tris-HCl, pH 7.5, 5 mM MgCl2, 5 mM MnCl2, 2 mM dithiothreitol, 0.01% Tween-20). A buffer (10 μl) containing 50 ng/ml TIE2 intracellular domain protein (UPSTATE) and 250 ng/ml biotin-labeled polypeptide biotinyl-poly-Glu:Tyr (4:1) (CIS Bio International) was added to the compound solution (5 μl). At 5 min after mixing a kinase enzyme, the compound and a biotin-labeled polypeptide, a buffer (10 μl) containing 5 μM ATP was added to the obtained mixture, the mixture was allowed to react at 25° C. for 10 min. Then, 25 μl of a stop solution (100 mM EDTA·2 sodium salt, 62.5 mM HEPES buffer (pH 7.4), 250 mM NaCl, 0.1% bovine serum albumin, 10 μg/ml Streptavidin Donor beads: PerkinElmer for alpha screen assay, 10 μg/ml Anti-phosphotyrosine (P-Tyr-66) Acceptor beads: PerkinElmer for alpha screen assay) was added to quench the reaction. The reaction solution was stood at 25° C. for 16 hr, and the count was measured using a plate reader·Fusion™ (manufactured by PerkinElmer). The kinase inhibitory rate (%) of the test compound was calculated by the following formula.
(§1) Inhibitory rate(%)=(1−(count of test compound−blank)÷(control−blank))×100
(§2) wherein the count of the solution reacted without addition of the compound is “control” and the count of the solution without addition of the compound and ATP is “blank”.
Prism (Graphpad Software) according to the nonlinear-regression sigmoidal dose-response (variable slope) analysis method.

[2] = system: Human umbilical vein endothelial cells (HUVEC); test: Vascular endothelial cell growth inhibitory test; format: cell-based; conditions: VEGF 120 ng/mL, culture 5 days, XTT reagent
Procedure: Human umbilical vein endothelial cells (HUVEC, purchased from KURABO) were cultured in a gas incubator (37° C., CO2 5%) in a vascular endothelial cell medium (Invitrogen) containing 5% fetal calf serum and a basic fibroblast growth factor (2.5 ng/mL). To be specific, HUVEC suspended in the aforementioned vascular endothelial cell medium (Invitrogen) containing 5% fetal calf serum were seeded into a 96 well flat-bottom plate (50 μL, 3000 cells each well). After culturing overnight, various concentrations of test substance and the final concentration (120 ng/mL) of vascular endothelial growth factor (VEGF) were dissolved in a vascular endothelial cell medium (Invitrogen) containing 5% fetal calf serum and added to each well (50 μL). After culturing for 5 days, an XTT reagent (Wako Pure Chemical Industries, Ltd.) was added to each well (10 μL), and reacted in a gas incubator (37° C., CO2 5%) for 2-3 hr. The absorbance at 450 nm was measured by a microtiter plate reader, and the cell growth inhibitory activity was determined.

[3] = target: T2, VEGF Receptor 2 Kinase (VEGFR2) (Homo sapiens, UniProt P35968); test: Determination of VEGF receptor 2 kinase (VEGFR2) inhibitory activity (alpha screen); format: biochemical; conditions: VEGFR2 intracellular domain protein, 25 μM ATP buffer, read-out: inhibitory rate (kinase inhibitory rate of VEGFR2)
T2 construct: made in house; host or cells: SF-21 insect cells, recombinant baculovirus BAC-VEGFR2 (pFASTBAC1)
Procedure: For cloning of human VEGF receptor 2 (hereinafter to be abbreviated as VEGFR2) gene, PCR was performed using cDNA Libraries Human Placenta (Clontech) as a template. The primer used for PCR was prepared by, based on the information of the base sequence (Genbank Accession AF035121) of VEGFR2 gene, adding a base sequence encoding the flag peptide and a restriction enzyme recognition sequence to the base sequence (2671-4374 of Genbank Accession AF035121) encoding the VEGFR2 intracellular domain, so that a flag tag would be added to the N terminal of the protein. The primer base sequence is shown in the following.
PCR reaction was carried out using a KOD-plus kit (TOYOBO). The obtained PCR product was electrophoresed on an agarose gel (1%), and a DNA fragment amplified by PCR was recovered from the gel and digested with restriction enzymes Sal I and Sph I. The DNA after the restriction enzyme treatment was electrophoresed on an agarose gel (1%), and the obtained DNA fragment was recovered and ligated to the plasmid pFASTBAC1 (Invitrogen) digested with restriction enzymes Sal I and Sph I to give an expression plasmid pFB-VEGFR2. The base sequence of the inserted fragment was confirmed to have matched with the base sequence (2671-4374 of Genbank Accession AF035121) of the VEGFR2 intracellular domain. Furthermore, virus stock BAC-VEGFR2 of the recombinant Baculovirus was prepared using BAC-TO-BAC Baculovirus Expression System (Invitrogen).
SF-21 cells were inoculated into 1 L of Sf-900IISFM medium (Invitrogen) containing 10% fetal calf serum (trace), 50 mg/L Gentamicin (Invitrogen) and 0.1% Pluronic F-68 (Invitrogen) at 1×10^6 cells/ml, and shake culture was performed using a 2 L Erlenmeyer flask at 27° C., 100 rpm. After 24 hr of culture, recombinant Baculovirus BAC-VEGFR2 (13.4 mL) was added, and the culture was continued for 3 days. The culture medium was centrifuged at 2,000 rpm for 5 min to give virus-infected cells. The infected cells were washed with phosphate buffered saline (Invitrogen), centrifuged under the same conditions, and preserved at −80° C. The cryopreserved cells were thawed in ice, suspended in 30 mL of buffer A (Tris buffer, pH 7.4, containing 20% glycerol and 0.15M NaCl (50 mM)) supplemented with Complete Protease Inhibitor (Boehringer), and disrupted three times using a polytron homogenizer (Kinematica) at 20,000 rpm, 30 sec. The disrupt was clarified by centrifugation at 40,000 rpm, 30 min and filtered through a 0.45 μm filter. The filtrate was passed through a column packed with Anti-FLAG M2 Affinity Gel (Sigma Ltd., 4 mL) at a flow rate of about 0.5 mL/min. The column was washed with buffer A and eluted with buffer A containing 100 μg/mL FLAG peptide. The eluate was concentrated by Vivaspin 20 (Viva Science) having a fraction molecular weight of 30K. The concentrate was applied to NAP™ 25 column (Amersham Biosciences) equilibrated with buffer A for buffer exchange. The fractions containing the VEGFR2 intracellular domain protein were collected, glycerol was added to the final concentration of 50% and the fractions cryopreserved at ˜80° C.
The test compound dissolved in dimethyl sulfoxide (DMSO) was diluted with a buffer (50 mM Tris-HCl, pH 7.5, 5 mM MgCl2, 5 mM MnCl2, 2 mM dithiothreitol, 0.01% Tween-20). A buffer (10 μl) containing 50 ng/ml VEGFR2 intracellular domain protein and 250 ng/ml biotin-labeled polypeptide biotinyl-poly-Glu:Tyr (4:1) (CIS Bio International) was added to the compound solution (5 μl). A buffer (10 μl) containing 25 μM ATP was added to the obtained mixture, the mixture was allowed to react at 25° C. for 5 min. Then, 25 μl of a stop solution (100 mM EDTA·2 sodium salt, 62.5 mM HEPES buffer (pH 7.4), 250 mM NaCl, 0.1% bovine serum albumin, 10 μg/ml Streptavidin Donor beads: PerkinElmer for alpha screen assay, 10 μg/ml Anti-phosphotyrosine (P-Tyr-100) Acceptor beads: PerkinElmer for alpha screen assay) was added to quench the reaction. […]

[4] = target: T3, PDGFR Alpha Receptor Kinase (PDGFRalpha) (Homo sapiens, UniProt P16234); test: Determination of PDGFR alpha receptor kinase (PDGFRalpha) inhibitory activity (alpha screen); format: biochemical; conditions: PDGFRalpha intracellular domain protein, 25 μM ATP buffer; read-out: IC50 value (PDGFRalpha kinase inhibition)
T3 construct: PDGFRalpha intracellular domain protein (UPSTATE); purchased UPSTATE
Procedure: The test compound dissolved in dimethyl sulfoxide (DMSO) was diluted with a buffer (50 mM Tris-HCl, pH 7.5, 5 mM MgCl2, 5 mM MnCl2, 2 mM dithiothreitol, 0.01% Tween-20).
Acceptor beads: PerkinElmer for alpha screen assay) was added to quench the reaction. The reaction solution was stood at 25° C. for 16 hr, and the count was measured using a plate reader·Fusion™ (manufactured by PerkinElmer). The kinase inhibitory rate (%) of the test compound was calculated by the following formula.
as §1, §2

T2 sequence (P35968 786-1356 limits assumed): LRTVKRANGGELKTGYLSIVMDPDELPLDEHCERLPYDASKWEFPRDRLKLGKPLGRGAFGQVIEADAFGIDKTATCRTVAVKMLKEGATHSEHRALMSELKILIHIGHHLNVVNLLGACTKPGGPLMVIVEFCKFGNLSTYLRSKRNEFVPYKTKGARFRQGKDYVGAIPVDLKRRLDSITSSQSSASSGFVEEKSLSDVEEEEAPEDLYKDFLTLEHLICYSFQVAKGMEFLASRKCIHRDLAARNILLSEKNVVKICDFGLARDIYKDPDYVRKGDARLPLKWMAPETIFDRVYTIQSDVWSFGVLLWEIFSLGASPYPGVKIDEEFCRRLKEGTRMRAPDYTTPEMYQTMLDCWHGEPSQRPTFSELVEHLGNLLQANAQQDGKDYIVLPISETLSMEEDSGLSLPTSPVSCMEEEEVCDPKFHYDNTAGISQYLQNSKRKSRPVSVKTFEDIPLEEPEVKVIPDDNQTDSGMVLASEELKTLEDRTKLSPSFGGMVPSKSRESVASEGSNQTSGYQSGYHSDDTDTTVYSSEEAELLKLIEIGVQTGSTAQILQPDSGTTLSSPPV
T1 sequence (Q02763 770-1124 limits assumed): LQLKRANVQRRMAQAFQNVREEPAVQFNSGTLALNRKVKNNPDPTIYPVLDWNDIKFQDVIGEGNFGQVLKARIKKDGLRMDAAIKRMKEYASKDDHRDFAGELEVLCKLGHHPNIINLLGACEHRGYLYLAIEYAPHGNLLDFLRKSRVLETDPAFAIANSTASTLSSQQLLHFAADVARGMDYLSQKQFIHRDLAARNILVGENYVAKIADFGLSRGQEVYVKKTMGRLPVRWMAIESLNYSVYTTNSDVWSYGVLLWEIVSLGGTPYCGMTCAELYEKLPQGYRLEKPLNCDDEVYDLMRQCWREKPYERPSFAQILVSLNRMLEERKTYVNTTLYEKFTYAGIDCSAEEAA
T3 sequence (P16234 550-1089 limits assumed): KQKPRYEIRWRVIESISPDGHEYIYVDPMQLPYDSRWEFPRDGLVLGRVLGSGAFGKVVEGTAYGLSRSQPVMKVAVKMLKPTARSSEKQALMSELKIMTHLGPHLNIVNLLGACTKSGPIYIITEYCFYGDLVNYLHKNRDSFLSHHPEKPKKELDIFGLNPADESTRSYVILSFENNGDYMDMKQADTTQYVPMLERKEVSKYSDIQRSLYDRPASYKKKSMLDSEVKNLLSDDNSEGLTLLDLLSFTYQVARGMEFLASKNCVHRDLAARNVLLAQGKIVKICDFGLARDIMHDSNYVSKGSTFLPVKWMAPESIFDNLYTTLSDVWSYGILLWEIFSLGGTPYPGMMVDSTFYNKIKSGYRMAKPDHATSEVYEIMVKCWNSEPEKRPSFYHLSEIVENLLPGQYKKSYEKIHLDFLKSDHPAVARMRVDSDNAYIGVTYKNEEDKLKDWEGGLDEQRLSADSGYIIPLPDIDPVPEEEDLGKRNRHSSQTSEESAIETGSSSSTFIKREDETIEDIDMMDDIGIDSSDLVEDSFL

Row | IC50 [1] [nM] | inhibition at 1 µM [3] [%] | IC50 [4] [nM] | Compound | IC50 ([2]; Homo sapiens, 120 h) [nM] | IC50 [2] [nM] | IC50 ([2]; hydrochloride) [nM]
1 | ≤ 5 | ≥ 90 | ≤ 500 | O=C(Nc1cccc(C(F)(F)F)c1)Nc1ccc(Oc2ncnc3ccn(CCOCCO)c23)cc1Cl [Example 14, N-[2-chloro-4-({5-[2-(2-hydroxyethoxy)ethyl]-5H-pyrrolo[3,2-d]pyrimidin-4-yl}oxy)phenyl]-N′-[3-(trifluoromethyl)phenyl]urea] | 33 |  | 
2 |  | ≥ 90 |  | Cn1ccc2ncnc(Oc3ccc(NC(=O)Nc4cc(C(F)(F)F)ccn4)c(Cl)c3)c21 [Example 30, N-{2-chloro-4-[(5-methyl-5H-pyrrolo[3,2-d]pyrimidin-4-yl)oxy]phenyl}-N′-[4-(trifluoromethyl)pyridin-2-yl]urea] |  | 2.7 | 
3 | ≤ 5 |  |  | Cn1ccc2ncnc(Oc3ccc(NC(=O)Nc4cc(C(F)(F)F)ccn4)c(Cl)c3)c21 [Example 60, N-{2-chloro-4-[(5-methyl-5H-pyrrolo[3,2-d]pyrimidin-4-yl)oxy]phenyl}-N′-[4-(trifluoromethyl)pyridin-2-yl]urea Methanesulfonic Acid Salt] |  | 6.5 | 
4 | ≤ 5 | ≥ 90 | ≤ 500 | O=C(Nc1cccc(C(F)(F)F)c1)Nc1ccc(Oc2ncnc3cc[nH]c23)cc1Cl [Example 116, N-[2-chloro-4-(5H-pyrrolo[3,2-d]pyrimidin-4-yloxy)phenyl]-N′-[3-(trifluoromethyl)phenyl]urea p-toluenesulfonic Acid Salt] |  | 3.4 | 
5 | ≤ 5 | ≥ 90 |  | Cn1ccc2ncnc(Oc3ccc(NC(=O)Nc4cccc(C(F)(F)F)c4)c(F)c3)c21 [Example 137, N-{2-fluoro-4-[(5-methyl-5H-pyrrolo[3,2-d]pyrimidin-4-yl)oxy]phenyl}-N′-[3-(trifluoromethyl)phenyl]urea Hydrochloride] | 3.6 |  | 

The remaining lines, values behind:

Row | Compound | IC50 [1] [nM] | inhibition at 1 µM [3] [%] | IC50 [4] [nM] | IC50 ([2]; Homo sapiens, 120 h) [nM] | IC50 [2] [nM] | IC50 ([2]; hydrochloride) [nM]
6 | Cn1ccc2ncnc(Oc3ccc(NC(=O)Nc4cccc(C(F)(F)F)c4)c(F)c3)c21 [Example 29, N-{2-fluoro-4-[(5-methyl-5H-pyrrolo[3,2-d]pyrimidin-4-yl)oxy]phenyl}-N′-[3-(trifluoromethyl)phenyl]urea] |  |  |  |  | 4.4 | 
7 | O=C(Nc1cccc(C(F)(F)F)c1)Nc1ccc(Oc2ncnc3cc[nH]c23)cc1Cl [Example 39, N-[2-chloro-4-(5H-pyrrolo[3,2-d]pyrimidin-4-yloxy)phenyl]-N′-[3-(trifluoromethyl)phenyl]urea] |  |  |  | 4.8 |  | 
8 | Cn1ccc2ncnc(Oc3ccc(NC(=O)Nc4cc(C(F)(F)F)ccc4F)c(Cl)c3)c21 [Example 40, N-{2-chloro-4-[(5-methyl-5H-pyrrolo[3,2-d]pyrimidin-4-yl)oxy]phenyl}-N′-[2-fluoro-5-(trifluoromethyl)phenyl]urea] | ≤ 5 | ≥ 90 |  | 11 |  | 
9 | Cc1cc2ncnc(Oc3ccc(NC(=O)Nc4cccc(C(F)(F)F)c4)c(Cl)c3)c2n1C [Example 124, N-{2-chloro-4-[(5,6-dimethyl-5H-pyrrolo[3,2-d]pytimidin-4-yl)oxy]phenyl}-N′-[3-(trifluoromethyl)phenyl]urea] |  |  |  |  | 13 | 
10 | Cc1cc2ncnc(Oc3ccc(NC(=O)Nc4cccc(C(F)(F)F)c4)c(Cl)c3)c2n1C [Example 134, N-{2-chloro-4-[(5,6-dimethyl-5H-pyrrolo[3,2-d]pyrimidin-4-yl)oxy]phenyl}-N′-[3-(trifluoromethyl)phenyl]urea hydrochloride] |  |  |  |  |  | 5.4
